In PubChem BioAssay (NCI):
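Compound exposure: 48 hours, 5 concentrations, 96-well plates. The concentration for 50% growth inhibition is given as GI50. TGI: concentration producing complete growth inhibition.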

Experiments:
Assay in all cases: inhibition of tumour cell growth, NCI panel, 48 h
NCI-H23 lung = system: NCI-H23 lung
786-0 renal = system: 786-0 renal
MCF7 breast = system: MCF7 breast
EKVX NSCLC = system: EKVX NSCLC
HCT-15 colon = system: HCT-15 colon
COLO 205 colon = system: COLO 205 colon
SK-MEL-28 melanoma = system: SK-MEL-28 melanoma
A549 NSCLC = system: A549 NSCLC
SW-620 colon = system: SW-620 colon
PC-3 prostate = system: PC-3 prostate
SNB-19 CNS = system: SNB-19 CNS
HOP-62 NSCLC = system: HOP-62 NSCLC
CCRF-CEM leukemia = system: CCRF-CEM leukemia
U251 CNS = system: U251 CNS
NCI-H522 lung = system: NCI-H522 lung
ACHN renal = system: ACHN renal
K-562 leukemia = system: K-562 leukemia
UACC-62 melanoma = system: UACC-62 melanoma
UACC-257 melanoma = system: UACC-257 melanoma
M14 melanoma = system: M14 melanoma
CAKI-1 renal = system: CAKI-1 renal
SF-539 CNS = system: SF-539 CNS
RXF 393 renal = system: RXF 393 renal
RPMI-8226 leukemia = system: RPMI-8226 leukemia
SNB-75 CNS = system: SNB-75 CNS
TK-10 renal = system: TK-10 renal
DU-145 prostate = system: DU-145 prostate
NCI/ADR-RES ovarian = system: NCI/ADR-RES ovarian
T-47D breast = system: T-47D breast
BT-549 breast = system: BT-549 breast
SK-OV-3 ovarian = system: SK-OV-3 ovarian
KM12 colon = system: KM12 colon
MALME-3M melanoma = system: MALME-3M melanoma
UO-31 renal = system: UO-31 renal
SF-268 CNS = system: SF-268 CNS
SN12C renal = system: SN12C renal
OVCAR-8 ovarian = system: OVCAR-8 ovarian
HL-60(TB) leukemia = system: HL-60(TB) leukemia
HCC-2998 colon = system: HCC-2998 colon
MDA-MB-435 = system: MDA-MB-435
SR leukemia = system: SR leukemia
NCI-H460 lung = system: NCI-H460 lung
HOP-92 NSCLC = system: HOP-92 NSCLC
IGROV1 ovarian = system: IGROV1 ovarian
MOLT-4 leukemia = system: MOLT-4 leukemia
SF-295 CNS = system: SF-295 CNS
LOX IMVI melanoma = system: LOX IMVI melanoma
OVCAR-3 ovarian = system: OVCAR-3 ovarian
HCT-116 colon = system: HCT-116 colon
HS 578T breast = system: HS 578T breast
MDA-MB-231 breast = system: MDA-MB-231 breast
OVCAR-5 ovarian = system: OVCAR-5 ovarian
OVCAR-4 ovarian = system: OVCAR-4 ovarian
HT29 colon = system: HT29 colon
A498 renal = system: A498 renal
SK-MEL-2 melanoma = system: SK-MEL-2 melanoma
NCI-H226 lung = system: NCI-H226 lung
SK-MEL-5 melanoma = system: SK-MEL-5 melanoma

## O=C(CCN1CCCN(c2cnc3ccccc3n2)CC1)c1csc2ccccc12
NCI-H23 lung
  GI50: 20.8 µM
  TGI: 46.7 µM
786-0 renal
  GI50: 18.4 µM
  TGI: 32.3 µM
MCF7 breast
  GI50: 3.2 µM
  TGI: 16.4 µM
EKVX NSCLC
  GI50: 19.6 µM
  TGI: 38.7 µM
HCT-15 colon
  GI50: 18.9 µM
  TGI: 34.8 µM
COLO 205 colon
  GI50: 17.6 µM
  TGI: 33.4 µM
SK-MEL-28 melanoma
  GI50: 20.6 µM
  TGI: 37.1 µM
A549 NSCLC
  GI50: > 100 µM
  TGI: > 100 µM
SW-620 colon
  GI50: 17.4 µM
  TGI: 33.3 µM
PC-3 prostate
  GI50: 21.3 µM
  TGI: 50.6 µM
SNB-19 CNS
  GI50: 36.7 µM
  TGI: > 100 µM
HOP-62 NSCLC
  GI50: 28.1 µM
  TGI: 77.3 µM
CCRF-CEM leukemia
  GI50: 12.5 µM
  TGI: 63.1 µM
U251 CNS
  GI50: 17.6 µM
  TGI: 31.4 µM
NCI-H522 lung
  GI50: 17.3 µM
  TGI: 31.7 µM
ACHN renal
  GI50: 17.9 µM
  TGI: 31.8 µM
K-562 leukemia
  GI50: 20 µM
  TGI: 48.6 µM
UACC-62 melanoma
  GI50: 19.7 µM
  TGI: 34.2 µM
UACC-257 melanoma
  GI50: 26.1 µM
  TGI: 63.2 µM
M14 melanoma
  GI50: 19.8 µM
  TGI: 39.3 µM
CAKI-1 renal
  GI50: 17.8 µM
  TGI: 31.7 µM
SF-539 CNS
  GI50: 18.9 µM
  TGI: 33.2 µM
RXF 393 renal
  GI50: 19.4 µM
  TGI: 37.5 µM
RPMI-8226 leukemia
  GI50: 12.6 µM
  TGI: 41.8 µM
SNB-75 CNS
  GI50: 17.2 µM
  TGI: 31.6 µM
TK-10 renal
  GI50: 16.1 µM
  TGI: 29.5 µM
DU-145 prostate
  GI50: 16.6 µM
  TGI: 32.4 µM
NCI/ADR-RES ovarian
  GI50: 21.3 µM
  TGI: 49.5 µM
T-47D breast
  GI50: 11 µM
  TGI: 25.3 µM
BT-549 breast
  GI50: 18.4 µM
  TGI: 32.3 µM
SK-OV-3 ovarian
  GI50: > 100 µM
  TGI: > 100 µM
KM12 colon
  GI50: 16 µM
  TGI: 29.4 µM
MALME-3M melanoma
  GI50: 18 µM
  TGI: 32.1 µM
UO-31 renal
  GI50: 14.8 µM
  TGI: 28 µM
SF-268 CNS
  GI50: 19.4 µM
  TGI: 38.6 µM
SN12C renal
  GI50: 21.9 µM
  TGI: 44.7 µM
OVCAR-8 ovarian
  GI50: 21.6 µM
  TGI: 48.4 µM
HL-60(TB) leukemia
  GI50: 27.2 µM
  TGI: 59.7 µM
HCC-2998 colon
  GI50: 16.9 µM
  TGI: 33.2 µM
MDA-MB-435
  GI50: 18.1 µM
  TGI: 32.2 µM
SR leukemia
  GI50: 24 µM
  TGI: 56.7 µM
NCI-H460 lung
  GI50: 32.8 µM
  TGI: > 100 µM
HOP-92 NSCLC
  GI50: 15.8 µM
  TGI: 34 µM
IGROV1 ovarian
  GI50: 16.2 µM
  TGI: 31.2 µM
MOLT-4 leukemia
  GI50: 26 µM
  TGI: 57.9 µM
SF-295 CNS
  GI50: 58 µM
  TGI: > 100 µM
LOX IMVI melanoma
  GI50: 17.2 µM
  TGI: 31.3 µM
OVCAR-3 ovarian
  GI50: 18.9 µM
  TGI: 32.9 µM
HCT-116 colon
  GI50: 16.5 µM
  TGI: 30.1 µM
HS 578T breast
  GI50: 20 µM
  TGI: 51.5 µM
MDA-MB-231 breast
  GI50: 21.2 µM
  TGI: 37 µM
OVCAR-5 ovarian
  GI50: 28.9 µM
  TGI: > 100 µM
OVCAR-4 ovarian
  GI50: 18.5 µM
  TGI: 35.1 µM
HT29 colon
  GI50: 13 µM
  TGI: 28.2 µM
A498 renal
  GI50: 96.7 µM
  TGI: > 100 µM
SK-MEL-2 melanoma
  GI50: 27.3 µM
  TGI: 76.5 µM
NCI-H226 lung
  GI50: 21.1 µM
  TGI: 38.5 µM
SK-MEL-5 melanoma
  GI50: 16.2 µM
  TGI: 30 µM

## CN(C)C1CN(C(=O)c2cc(-c3ccc4ncnc(N5CCc6cc(F)c(Cl)cc65)c4c3)cnc2N)C1
NCI-H23 lung
  GI50: 1.25 µM
  TGI: > 100 µM
786-0 renal
  GI50: 0.436 µM
  TGI: > 100 µM
MCF7 breast
  GI50: 0.303 µM
  TGI: > 100 µM
HCT-15 colon
  GI50: 0.495 µM
  TGI: > 100 µM
COLO 205 colon
  GI50: 1.97 µM
  TGI: > 100 µM
SK-MEL-28 melanoma
  GI50: 0.869 µM
  TGI: > 100 µM
A549 NSCLC
  GI50: 0.486 µM
  TGI: > 100 µM
SW-620 colon
  GI50: 1.48 µM
  TGI: > 100 µM
PC-3 prostate
  GI50: 0.398 µM
  TGI: > 23 µM
SNB-19 CNS
  GI50: 1.65 µM
  TGI: > 100 µM
HOP-62 NSCLC
  GI50: 0.586 µM
  TGI: > 28.1 µM
CCRF-CEM leukemia
  GI50: 0.583 µM
  TGI: > 100 µM
U251 CNS
  GI50: 1.34 µM
  TGI: > 100 µM
NCI-H522 lung
  GI50: 1.77 µM
  TGI: > 100 µM
ACHN renal
  GI50: 0.443 µM
  TGI: > 100 µM
K-562 leukemia
  GI50: 0.86 µM
  TGI: > 100 µM
UACC-62 melanoma
  GI50: 0.43 µM
  TGI: 2.16 µM
UACC-257 melanoma
  GI50: 1.54 µM
  TGI: > 28.1 µM
M14 melanoma
  GI50: 0.886 µM
  TGI: > 100 µM
CAKI-1 renal
  GI50: 0.509 µM
  TGI: > 100 µM
SF-539 CNS
  GI50: 0.827 µM
  TGI: 5.07 µM
RXF 393 renal
  GI50: 0.369 µM
  TGI: 2.34 µM
RPMI-8226 leukemia
  GI50: 0.489 µM
  TGI: 2.7 µM
SNB-75 CNS
  GI50: 0.195 µM
  TGI: 2.02 µM
TK-10 renal
  GI50: 0.786 µM
  TGI: 4.95 µM
DU-145 prostate
  GI50: 0.594 µM
  TGI: > 100 µM
NCI/ADR-RES ovarian
  GI50: 1.71 µM
  TGI: > 100 µM
T-47D breast
  GI50: 0.299 µM
  TGI: 5.52 µM
BT-549 breast
  GI50: 0.436 µM
  TGI: 4.02 µM
SK-OV-3 ovarian
  GI50: 1.17 µM
  TGI: > 100 µM
KM12 colon
  GI50: 1.13 µM
  TGI: > 100 µM
MALME-3M melanoma
  GI50: 0.453 µM
  TGI: 3.66 µM
UO-31 renal
  GI50: 0.237 µM
  TGI: > 100 µM
SF-268 CNS
  GI50: 0.652 µM
  TGI: > 100 µM
SN12C renal
  GI50: 0.385 µM
  TGI: > 100 µM
OVCAR-8 ovarian
  GI50: 0.819 µM
  TGI: > 100 µM
HL-60(TB) leukemia
  GI50: 0.151 µM
  TGI: 1.49 µM
HCC-2998 colon
  GI50: 0.71 µM
  TGI: > 100 µM
MDA-MB-435
  GI50: 0.687 µM
SR leukemia
  GI50: 1.17 µM
  TGI: > 100 µM
NCI-H460 lung
  GI50: 0.574 µM
  TGI: > 100 µM
HOP-92 NSCLC
  GI50: 0.331 µM
  TGI: 2.17 µM
IGROV1 ovarian
  GI50: 0.223 µM
  TGI: 1.23 µM
SF-295 CNS
  GI50: 1.18 µM
  TGI: > 100 µM
LOX IMVI melanoma
  GI50: 0.458 µM
  TGI: > 100 µM
OVCAR-3 ovarian
  GI50: 0.585 µM
  TGI: 5.2 µM
HCT-116 colon
  GI50: 0.728 µM
HS 578T breast
  GI50: 0.241 µM
  TGI: 1.31 µM
MDA-MB-231 breast
  GI50: 0.931 µM
  TGI: > 100 µM
OVCAR-5 ovarian
  GI50: 0.743 µM
  TGI: > 100 µM
HT29 colon
  GI50: 0.543 µM
  TGI: > 100 µM
A498 renal
  GI50: 0.254 µM
  TGI: 0.832 µM
SK-MEL-2 melanoma
  GI50: 1.09 µM
  TGI: 3.77 µM
NCI-H226 lung
  GI50: 0.986 µM
  TGI: > 100 µM
SK-MEL-5 melanoma
  GI50: 1.54 µM
  TGI: 2.92 µM
